Data: patent publication US11180488B2, “Isoxazole o-linked carbamoyl cyclohexyl acids as LPA antagonists” (BRISTOL-MYERS SQUIBB COMPANY, priority 2017, dated 2021)
Values belong to the compound of their own block, whether it stands above or below them.

How the values were obtained:
[1] = test system: IPF patients; settings: 26-week clinical trial; cited from earlier work
[2] = test system: nerve-injured mice; settings: pretreatment; cited from earlier work
[3] = test system: human foetal lung fibroblasts; settings: cited from earlier work
[4] = test system: UUO mice; settings: mouse, in vivo; cited from earlier work
[5] = test system: CTGF; settings: co-treatment, MCT cells; cited from earlier work
[6] = test system: pancreatic cancer cell lines; settings: cited from earlier work
[7] = test system: highly peritoneal metastatic pancreatic cancer cell line; settings: cited from earlier work
[8] = target: T1, human LPA1 (Homo sapiens, UniProt Q92633); assay: LPA1 functional antagonist assay (LPA-induced calcium flux); type: cell-based; settings: CHO cells overexpressing human LPA1; calcium flux induced by 10 nM LPA; read-out: hLPA1 IC50
T1 construct: expressed in transfected cells; host or cells: Chinese hamster ovary (CHO) cells
T1 sequence (Q92633 whole entry): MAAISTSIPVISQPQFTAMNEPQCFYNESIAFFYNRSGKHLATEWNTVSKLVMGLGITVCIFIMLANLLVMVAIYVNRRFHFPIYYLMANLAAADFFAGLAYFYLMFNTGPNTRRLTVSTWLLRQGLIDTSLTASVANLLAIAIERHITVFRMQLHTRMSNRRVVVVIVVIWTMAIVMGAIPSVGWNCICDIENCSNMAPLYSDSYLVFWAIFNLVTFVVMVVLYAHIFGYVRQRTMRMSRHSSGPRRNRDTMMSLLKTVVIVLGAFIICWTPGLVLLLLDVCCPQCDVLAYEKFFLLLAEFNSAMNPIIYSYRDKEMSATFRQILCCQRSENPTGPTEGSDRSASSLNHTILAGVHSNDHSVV
Description: The effectiveness of compounds of the present invention as LPA1 inhibitors can be determined in an LPA1 functional antagonist assay as follows:
Chinese hamster ovary cells overexpressing human LPA1 were plated overnight (15,000 cells/well) in poly-D-lysine coated 384-well microplates (Greiner bio-one, Cat #781946) in DMEM/F12 medium (Gibco, Cat #11039). Following overnight culture, cells were loaded with calcium indicator dye (AAT Bioquest Inc, Cat #34601) for 30 minutes at 37° C. The cells were then equilibrated to room temperature for 30 minutes before the assay. Test compounds solubilized in DMSO were transferred to 384 well non-binding surface plates (Corning, Cat #3575) using the Labcyte Echo acoustic dispense and diluted with assay buffer [1×HBSS with calcium/magnesium (Gibco Cat #14025-092), 20 mM HEPES (Gibco Cat #15630-080) and 0.1% fatty acid free BSA (Sigma Cat #A9205)] to a final concentration of 0.5% DMSO. Diluted compounds were added to the cells by FDSS6000 (Hamamatsu) at final concentrations ranging from 0.08 nM to 5 μM. and were then incubated for 20 min at room temperature at which time LPA (Avanti Polar Lipids Cat #857130C) was added at final concentrations of 10 nM to stimulate the cells. […] IC50 values were determined by fitting data to a 4-parameter logistic equation (GraphPad Prism, San Diego Calif.).

Structure (SMILES): Cc1noc(-c2ccc(-c3ccc(C4(C(=O)O)CC4)cc3)cc2)c1NC(=O)O[C@H](C)c1ccccc1 [BMS-986020]
rate of FVC (forced vital capacity) decline [1]: significantly reduce

Structure (SMILES): C[C@@H](N)[C@H]1CC[C@H](C(=O)Nc2ccncc2)CC1 [Example Y-27632]
allodynia and hyperalgesia [2]: completely abolished

Structure (SMILES): Cc1noc(-c2ccc(CSCCC(=O)O)cc2)c1NC(=O)OC(C)c1ccccc1Cl (stereo not shown) [Ki16425]
chemotaxis of human foetal lung fibroblasts induced by BAL from IPF patients [3]: blocked
fibroblast chemotactic activity in bronchoalveolar lavage samples of IPF subjects [3]: inhibited
renal fibrosis profile of treated UUO mice [4]: closely resembled the profile of LPA1 (−/−) mice
induction of CTGF expression by LPA [5]: almost completely suppressed
in vitro migration in response to LPA and peritoneal fluid (ascites) [6]: effectively blocked
LPA-induced and ascites-induced invasion activity [7]: blocked

IC50 [8]: 0.006 µM
Structure (SMILES): Cc1onc(-c2ccc(O[C@H]3CCC[C@H](C(=O)O)C3)cc2)c1COC(=O)N(C)C1CCCC1 [Example 53, (1S,3S)-3-(4-(4-(((cyclopentyl(methyl)carbamoyl)oxy)methyl)-5-methylisoxazol-3-yl)phenoxy)cyclohexane-1-carboxylic Acid]

IC50 [8]: 0.028 µM
Structure (SMILES): CCCCN(C)C(=O)OCc1c(C)noc1-c1ccc(O[C@H]2CCC[C@H](C(=O)O)C2)cc1 [Example 2, (1S,3S)-3-(4-(4-(((butyl(methyl)carbamoyl)oxy)methyl)-3-methylisoxazol-5-yl)phenoxy) cyclohexane-1-carboxylic Acid]

IC50 [8]: 0.015 µM
Structure (SMILES): Cc1noc(-c2ccc(O[C@@H]3CCC[C@@](F)(C(=O)O)C3)cc2)c1COC(=O)N(C)C1CCCC1 (single isomer, unassigned) [Example 4]

IC50 [8]: 0.675 µM
Structure (SMILES): COCC(C)N(C)C(=O)OCc1c(C)noc1-c1ccc(O[C@@H]2CCC[C@@H](C(=O)O)C2)cc1 (stereo partly shown) [Example 67]

IC50 [8]: 0.851 µM
Structure (SMILES): Cc1noc(-c2ccc(OC3CCCC(c4nnn[nH]4)C3)cc2)c1COC(=O)N(C)C1CCCC1 (mixture of isomers) [Example 75, (5-(4-((3-(1H-tetrazol-5-yl)cyclohexyl)oxy)phenyl)-3-methylisoxazol-4-yl) methyl cyclopentyl(methyl)carbamate]
